Counter-ions that a name gives are not always drawn.
Experiments:
recombinant human raf1 = target: T1, recombinant human raf1 (Homo sapiens, UniProt P04049); experiment: Raf1 direct kinase assay (KinaseGlo); type: biochemical; settings: printed in the RAF-MEK column
T1 construct: purchased Upstate, Lake Placid, N.Y
Protocol: The ability of compounds of general structure (A) of the present invention to inhibit the kinase activity of Raf1 was evaluated using two methods: a direct and a Raf1-MEK1 assay. In the direct assay, kinase reactions were conducted in 96-well plates by combining recombinant human raf1 (29.4 U/well, Upstate, Lake Placid, N.Y.), ATP (3 μM), myelin basic protein substrate (MBP, 1 mg/ml, Upstate, Lake Placid, N.Y.), and test agents (at concentrations ranging from about 1 nM/l to about 10 μM), in the presence of kinase reaction buffer. […] After reacting for 60 minutes at 30° C., residual ATP was measured using a luciferase-based assay (KinaseGlo, Promega Corp.) as a measure of kinase activity. Data from four wells were then averaged and used to determine IC50 values for the test compounds (Prism software package, GraphPad Software, San Diego Calif.).

[1] = target: T2, raf1 with inactive MEK1 (Raf1-MEK1) (Homo sapiens, UniProt P04049); experiment: Raf1-MEK1 assay (KinaseGlo); type: biochemical; settings: for IC50: Raf-Mek, 3 uM ATP, read-out: RAF-MEK assay (biochemical assay)
T2 construct: purchased Upstate, Lake Placid, N.Y
T2 sequence (P04049 306-648 limits assumed): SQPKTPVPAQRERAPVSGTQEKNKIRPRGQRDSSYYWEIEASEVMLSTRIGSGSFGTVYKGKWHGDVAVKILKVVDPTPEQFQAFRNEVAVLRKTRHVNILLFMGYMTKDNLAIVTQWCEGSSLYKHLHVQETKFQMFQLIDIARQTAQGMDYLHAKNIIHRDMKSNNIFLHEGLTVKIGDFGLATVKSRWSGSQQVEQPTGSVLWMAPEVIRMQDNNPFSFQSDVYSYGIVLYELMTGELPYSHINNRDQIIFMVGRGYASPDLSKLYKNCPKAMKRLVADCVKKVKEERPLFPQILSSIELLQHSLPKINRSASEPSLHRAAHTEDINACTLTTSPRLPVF

[2] = system: p-MEK and p-ERK levels in HUVECs; experiment: Western Blot, inhibition of MAPK pathway in cellular assay (Example 27); type: cell-based, human; settings: at 5 uM, 50 ng/ml VEGF or FGF
Protocol: Western Blot: Early passage primary human umbilical vein endothelial cells (HUVECs) were maintained in EGM-2 containing SingleQuots (Cambrex, East Rutherford, N.J.), 10% FBS, 10 mM HEPES, and 50 μg/ml gentamicin. Prior to treatment of the cells with inhibitor, the HUVECs were starved for 18 h by replacing serum-containing complete media with scrum-free and SingleQuot-free media. The starved cells were pre-treated with inhibitors for 60 min at various concentrations (0-20 μM). Next the HUVECs were treated with 50 ng/ml VEGF or FGF (Peprotech, Rocky Hill, N.J.) for 6 min and the cells were immediately washed with ice-cold PBS. Cells were lysed with ice-cold RIPA buffer containing 100 mM Tris pH 7.5, 150 mM NaCl, 1 mM EDTA, 1% deoxycholate, 1% Triton X-100, 0.1% SDS, 2 mM PMSF, one Complete-Mini protease inhibitor tablet (Roche, Indianapolis, Ind.; 1 tablet/7 ml of lysis buffer) and the phophatase inhibitors NaF (500 mM) and orthovanadate (1 mM). The cells were scraped and lysates transferred and centrifuged at 15,000 g for 10 min. Supernatants were transferred to new tubes and protein concentration was quantitated using the BCA protein reagent (Pierce, Rockford, Ill.). Cell lysates containing 20 μg of total protein were separated by 10% SDS-PAGE, transferred to nitrocellulose, and blocked in 5% milk in TBST. Anti phospho-ERK Thr 202/Tyr 204 (Cell Signaling, Beverly, Mass.), anti-phospho-MEK Ser217/221 (Cell Signaling), and c-Raf (BD Biosciences Pharmingen, San Diego, Calif.) used as primary antibodies were detected with horseradish peroxidase-conjugated goat anti-mouse or rabbit secondary antibodies and bands were visualized using the SuperSignal West Pico chemiluminescence reagent system (Pierce) and Kodak X-ray film (Rochester, N.Y.).

HUVECs = experiment: XTT cell viability assay (Example 28); type: cell-based; settings: Homo sapiens, HUVEC, 24-48 hours, read-out: Inhibition of HUVEC cell prolifiration (IC50)
Protocol: XTT assay: HUVECs were seeded at 10,000 cells/well of a tissue culture treated 96-well plate treated with collagen type I and grown overnight in the complete EGM-2 media as described above. The following morning, the inhibitors were serial diluted with DMSO and added to the cells with a final DMSO concentration of 1%. After 24-48 hours cell viability was measured with an XTT assay (Sigma, St. Louis, Mo.). The cells were also photographed to compare morphological differences to the XTT trends observed. Determination of the IC50 values was performed with quantitative software (Prism software package, GraphPad Software, San Diego Calif.).

T1 sequence (P04049 whole entry): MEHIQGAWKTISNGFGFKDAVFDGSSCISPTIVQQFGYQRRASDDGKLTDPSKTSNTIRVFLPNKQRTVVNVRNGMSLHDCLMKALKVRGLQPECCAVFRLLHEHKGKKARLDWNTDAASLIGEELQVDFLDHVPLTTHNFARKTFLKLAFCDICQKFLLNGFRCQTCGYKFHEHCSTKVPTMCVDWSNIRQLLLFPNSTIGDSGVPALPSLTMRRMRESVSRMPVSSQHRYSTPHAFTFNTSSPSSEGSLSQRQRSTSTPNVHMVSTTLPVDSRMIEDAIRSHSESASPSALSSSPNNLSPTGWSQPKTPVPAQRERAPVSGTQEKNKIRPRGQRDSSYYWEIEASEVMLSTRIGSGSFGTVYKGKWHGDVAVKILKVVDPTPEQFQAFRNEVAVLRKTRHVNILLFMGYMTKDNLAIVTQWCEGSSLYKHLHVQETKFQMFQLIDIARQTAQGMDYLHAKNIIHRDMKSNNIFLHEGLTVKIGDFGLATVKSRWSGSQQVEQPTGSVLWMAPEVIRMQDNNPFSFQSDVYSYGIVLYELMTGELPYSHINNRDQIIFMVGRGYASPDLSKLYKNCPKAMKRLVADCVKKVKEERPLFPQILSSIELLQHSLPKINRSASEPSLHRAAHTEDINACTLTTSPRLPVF

CNC(=O)c1cc(Oc2ccc3nc(Nc4ccc(Cl)cc4)nnc3c2)ccn1 [4-[3-(4-chloro-phenylamino)-benzo[1,2,4]triazin-7-yloxy]-pyridine-2-carboxylic acid methylamide trifluoroacetate salt]
IC50 (recombinant human raf1): 0.077 µM | IC50 [1]: 10 to 50 µM | window [1]: 100% | Western Blot [2]: not active at 5 uM

O=C(Nc1nnc2cc(Oc3ccncc3)ccc2n1)c1ccc(OC(F)(F)F)cc1 [N-[7-(Pyridin-4-yloxy)-benzo[1,2,4]triazin-3-yl]-4-trifluoromethoxy-benzamide]
Western Blot [2]: not active at 5 uM | IC50 (HUVECs): 7.38 µM

CNC(=O)c1cc(Oc2ccc3nc(NS(=O)(=O)c4ccccc4C(F)(F)F)nnc3c2)ccn1 [4-[2-(trifluoromethyl-benzenesulfonylamino)-benzo[1,2,4]triazin-7-yloxy]-pyridine-2-carboxylic acid methyl amide trifluoroacetate salt]
RAF-MEK assay (biochemical assay), result in words [1]: flat | Western Blot [2]: not active at 5 uM

O=C(Nc1nnc2cc(Oc3ccnc(C(=O)NCCN4CCOCC4)c3)ccc2n1)c1ccc(OC(F)(F)F)cc1 [4-[3-(4-Trifluoromethoxy-benzoylamino)-benzo[1,2,4]triazin-7-yloxy]-pyridine-2-carboxylic acid (2-morpholin-4-yl-ethyl)-amide]
Western Blot [2]: active at 5 uM | IC50 (HUVECs): 1.48 µM

CNC(=O)c1cc(Oc2ccc3nc(NC(=O)c4cccc(Cl)c4)nnc3c2)ccn1 [trifluoroacetate salt]
RAF-MEK assay (biochemical assay), result in words [1]: flat | Western Blot [2]: not active at 5 uM

CNC(=O)c1cc(Oc2ccc3nc(Nc4ccc(Cl)c(C(F)(F)F)c4)nnc3c2)ccn1 [4-[3-(4-chloro-3-trifluoromethyl-phenylamino)-benzo[1,2,4]triazin-7-yloxy]-pyridine-2-carboxylic acid methylamide trifluoroacetate salt]
IC50 [1]: 0.0116 µM | window [1]: ~20% | Western Blot [2]: not active at 5 uM
